We go through four compounds from patent US12582626B2, “Methods and compositions for treating cancer” (The Wistar Institute of Anatomy and Biology, priority 2016, dated 2026).

One experiment deals with activated CD8+ T cells. The experiment is described as follows: In vitro stimulation of CD8+ T cells and drug treatments (flow cytometry, intracellular cytokine staining). It is filed as cell-based, mouse. Here is the method: Enriched CD8+ T cells were activated for 4 days in 6-well plates pre-coated with antibodies to CD3 (5 μg/ml) and CD28 (5 μg/mL) (BD Bioscience). For some samples, cells were transferred for the last 16 hours to a hypoxia chamber. To study the impact of hypoxia on relatively resting CD8+ T cells, enriched CD8+ T cells were stimulated for 48 hours under normoxia. Cells were then removed from the plates, washed and replated in fresh medium with 100 U/ml human IL-2 for 96 hours, followed by culture in normoxia or hypoxia with IL-2 for another 36 hours before analysis. Cells were cultured in Roswell Park Memorial Institute (RPMI) medium without Glu (Life Technologies) supplemented with Glu (10 mM) or Gal (10 mM), 10% dialyzed FBS (Life Technologies), 20 mM HEPES, 2 mM Glutamax, 1 mM sodium pyruvate, 0.05 mM 2-mercaptoethanol and 1% penicillin-streptomycin. Hypoxia experiments were performed in a Thermo Napco series 8000WJ CO2 incubator equipped with nitrogen tank for O2 replacement. O2 level was kept at 1% during CD8+ T cells hypoxia culture for time periods indicated in each assay. In all assays cell viability was assessed before staining. […] Drugs and corresponding vehicle controls were added as follows: 2-deoxy-D-glucose (2-DG, 2 mM, Sigma) or Fenofibrate (FF, 50 μM, Sigma) for the entire culture period; Etomoxir (Eto, 200 μM, Sigma) for the last 48 hours. DMSO concentrations were kept below 0.2% for all culture conditions.
CD8^+ T cells from spleens of naive C57Bl/6 mice were purified by negative selection using magnetic beads (MACS, STEMCELL Technologies). Enriched CD8^+ T cells were activated for 4 days in 6-well plates pre-coated with antibodies to CD3 (5 μg/ml) and CD28 (5 μg/mL) (BD Bioscience). For some samples, cells were transferred for the last 16 hours to a hypoxia chamber. To study the impact of hypoxia on resting CD8^+ T cells, purified enriched CD8^+ T cells were stimulated for 48 hours under normoxia. Cells were then washed off the plates and replated in fresh medium with 100 U/ml human IL-2 for 96 hours, followed by culture in normoxia or hypoxia with IL-2 for another 36 hours before analysis. Cells were cultured in Roswell Park Memorial Institute (RPMI) medium without Glu (Life Technologies) supplemented with Glu (10 mM) or Gal (10 mM), 10% dialyzed FBS (Life Technologies), 20 mM HEPES, 2 mM Glutamax, 1 mM sodium pyruvate, 0.05 mM 2-mercaptoethanol and 1% penicillin-streptomycin. Hypoxia experiments were performed in a Thermo Napco series 8000WJ CO2 incubator equipped with nitrogen tank for O2 replacement. O2 level was kept at 1% during CD8^+ T cells hypoxia culture for time periods indicated in each assay. Drugs and corresponding vehicle controls were added as follows: 2-deoxy-D-glucose (2-DG, 2 mM, Sigma) or Fenofibrate (FF, 50 μM, Sigma) for the entire culture period; Etomoxir (Eto, 200 μM, Sigma), Amidepsine A (AmA, 20 μM, Santa Cruz), or Orlistat (OS, 100 μM, Sigma) for the last 48 hours. DMSO concentrations were kept below 0.2% for all culture conditions.
For mitochondrial metabolic markers analysis, cells were stained with Mitosox Red (5 μM, MROS) and DioC6 (40 nM, MMP) (Life Technologies) at 37° C. for 30 minutes under either normoxia or hypoxia (for in vitro samples cultured prior to staining under hypoxia). For fatty acid uptake experiments, cells stimulated under different conditions in vitro or isolated from spleen and tumors of mice bearing 2 weeks or 1 month-old tumors were immediately incubated with 1 μM BODIPY FL C16 (Life tech) for 30 mins at 37° C. Cells were washed twice with cold PBS before surface staining. For Cpt1a staining, cells were stained for surface markers first followed by permeabilization with transcription factor buffer set (BD Pharmingen, San Diego, CA). Cells were stained with anti-Cpt1a antibody or mouse IgG2b isotype control antibody (abcam) at 5 μg/ml in 1× permwash for 45 mins at 4° C. […]

The subject of a further experiment is CD8+ T cells. The experiment is described as follows: Extracellular flux analysis (OCR, ECAR) of stimulated CD8+ T cells. It is filed as cell-based, mouse. The settings on record: for Basal OCR: OS 100 μM or AmA 20 μM, Glu or Gal media, short-term hypoxia. Here is the method: OCR and ECAR for CD8^+ T cells stimulated under different conditions were measured with XF24 and XF96 Extracellular Flux Analyzers (Seahorse Bioscience) following the manufacturer's instructions. Hypoxia samples were prepared in a hypoxia chamber under 1% O2. Dead cells were removed by dead cell removal kit using MACS and live cells were pre-incubated with 100 μM cobalt chloride before being removed from the hypoxia chamber and entered into the Seahorse analyzer. In experiments to determine the contribution of fatty acid oxidation (FAO) to OCR, 200 μM ETO was added 15 minutes before the Seahorse analysis. Briefly after repeated measures of basal respiration and lactate production, 1 μM OM was added to measure ATP leakage by OCR and glycolytic capacity by ECAR. 1.5 μM FCCP was then added to measure maximal respiration by OCR followed by addition of 100 nM Rotenone and 1 μM Antimycin A (AmA) to determine spare respiratory capacity by OCR and then 100 mM 2-DG to determine glycolytic reserve by ECAR.

Experiment [1] has as its system vaccine-induced CD8+ T cells. The experiment is described as follows: FF treatment of vaccinated donor mice, splenic CD8+ T cells analysed before transfer. The following applies: samples incubated with Eto. The experiment is classed as in vivo, mouse. On the procedure:
For in vivo treatment, fenofibrate (FF; at 100 mg/kg/day, Sigma) was first diluted in dimethylsulfoxide (DMSO) and then further diluted in PBS and given by oral gavage daily for 3 weeks. Control mice received diluent at the same volume. For adoptive transfer experiments, 1×10^7 in vitro activated CD8^+ T cells transduced with lentivectors or splenocytes from vaccinated mice treated with drugs and containing 5×10^4 Trp-1455 tetramer^+CD8^+ T cells per dose were injected intravenously into recipient mice. For FF/control treated splenocytes or wild type/PPAR-α KO splenocytes co-transfer experiments, splenocytes containing 10^5 Trp-1455 tetramer^+CD8^+ T cells from each group were mixed and transferred into CD90.1^+ recipient mice intravenously.
To assess how increased FA catabolism affects CD8+TIL functions, we vaccinated CD90.2+ mice congenic for CD45, and treated them for 3 weeks daily with FF (CD45.1 mice) or diluent (CD45.2 mice). Splenocytes from these mice were mixed at a 1:1 ratio of Trp-1-specific CD8+ T cells from the 2 donors and transferred into CD90.1+ recipient mice, which had been challenged with tumor cells and vaccinated 3 days later. Cells were transferred 2 days after vaccination (FIG. 6A).

Each structure is given as a SMILES string.

For `O=CC[C@@H](O)[C@H](O)[C@H](O)CO` [2-DG, 2-deoxy-D-glucose], the PD-1 expression entry in the experiment with activated CD8+ T cells (2-DG compared to cells grown with Glu) is “more”. For the same compound, in the experiment on CD8+ T cells (Glu medium with 2-DG 2 mM), the “O2 consumption rate (OCR)” value was “decreases”, the OCR/ECAR ratio entry is recorded as “augments” and the “extracellular acidification rate (ECAR)” value was “declines”.
With `COc1cc(C)c(C(=O)Oc2cc(C)c(C(=O)Oc3cc(C)c(C(=O)NC(C)C(=O)O)c(O)c3)c(O)c2)c(OC)c1` (stereo not shown) [AmA, Amidepsine A], the “functions of T cells” value in the experiment with activated CD8+ T cells (Gal media and hypoxia) is “decrease functions”. For the same compound, the PD-1 expression result in the experiment with activated CD8+ T cells (under hypoxia, AmA, Gal medium) is listed as “decreases”. The “Basal OCR” value with CD8+ T cells is reported as “decreases”.
`CCOC(=O)[C@@]1(CCCCCCOc2ccc(Cl)cc2)CO1` [Eto, etomoxir]: the “FF-enhanced OCR of splenocytes” value in experiment [1] was “blocked”. Also, the “functions and polyfunctionality of CD8+ T cells” value in the experiment with activated CD8+ T cells (cultured with limited access to Glu and O2) is on record as “decreases”. Besides, in the experiment on activated CD8+ T cells (under hypoxia, FF 50 μM or Eto 200 μM), the PD-1 expression result is recorded as “decreases”. Moreover, the OCR result in the experiment on CD8+ T cells (Eto 200 μM, CD8+ T cells stimulated in Glu or Gal media) is listed as “decreases”.
For `CCCCCCCCCCC[C@@H](C[C@@H]1OC(=O)[C@H]1CCCCCC)OC(=O)[C@H](CC(C)C)NC=O` [OS, Orlistat], the PD-1 expression result in the experiment on activated CD8+ T cells (under hypoxia, OS, regardless of other culture conditions) is listed as “decreases”. Moreover, the “Basal OCR” value with CD8+ T cells is listed as “decreases”.
